Tests used:
DC-3F cells = assay: Calcium electroporation with two calcium sources, MTT assay; type: cell-based, Chinese hamster; conditions: 1 mM, 8 pulses, 0-1.6 kV/cm; MTT 1 day after treatment
Procedure: DC-3F cells were electroporated as described in example 1 with 1 mM calcium chloride (prepared by SAD, Denmark) or 1 mM calcium glubionate (Sandoz, Holzkirchen, Germany). The calcium concentration was chosen based on the experiment described in example 1 where 1 mM calcium is the lowest concentration inducing high cell death. The cells were electroporated with 8 pulses of […] at 1 Hz and increasing electric field (0-1.6 kV/cm). After 20 min at 37° C. and 5% CO2 cells were diluted in RPMI 1640 culture medium with 10% fetal calf serum and penicillin-streptomycin and seeded in 96-well plates at a concentration of 3.1×10^4 cells/100 μl.

[1] = tested on: DC-3F, K-562 and Lewis Lung Carcinoma cells; assay: In vitro electroporation, MTT viability assay; type: cell-based, Chinese hamster, human, murine; conditions: electroporated; data not shown
Procedure: Three cell lines are used for in vitro experiments, DC-3F, a transformed Chinese hamster lung fibroblast cell line; K-562, a human leukemia cell line; and Lewis Lung Carcinoma, a murine lung carcinoma cell line. DC-3F cells were tested for mycoplasma in January 2011, K-562 cells were tested for mycoplasma in 2008 prior to freezing and thawing just before experiments were performed, and Lewis Lung cells were tested by rapid MAP27 panel (Taconic, Hudson N.Y.) in July 2011 without signs of infection. Cells are maintained in RPMI 1640 culture medium (GIBCO™, Life Technologies, Carlsbad, Calif.) with 10% fetal calf serum (GIBCO™, Life Technologies, Carlsbad, Calif.), penicillin and streptomycin at 37° C. and 5% C02. After harvesting, cells are washed and diluted in HEPES buffer containing 10 mM HEPES (Lonza, Basel, Switzerland), 250 mM sucrose and 1 mM MgCl2 in sterile water. 270 μl cell suspension (6.1×10^6 cells/ml) and 30 μl CaCl2, or in the case of controls, HEPES buffer, are electroporated in 4 mm wide cuvettes with aluminium electrodes (Molecular BioProducts, Inc., San Diego, Calif.). Cooled cells (8° C.) are exposed to 8 pulses of 1.2 kV/cm with pulse duration of 99 μs (DC-3F and K562 cells) or 8 pulses of 1.4 kV/cm with pulse duration of 99 μs (Lewis Lung Carcinoma) using a BTX® T820 square wave electroporator (BTX®, Harvard Apparatus, Holliston, Mass.). The electroporation parameters are chosen after optimization to obtain high permabilisation and cell survival. After 20 min at 37° C. and 5% CO2 cells are diluted in RPMI 1640 culture medium with 10% fetal calf serum and penicillin-streptomycin and seeded in 96-well plates at a concentration of 3.1×10^4 cells/100 μl.
Difference between electroporated and non-electroporated cells in identical buffer is assessed using two-way analysis of variance (ANOVA) with post least-squares-means test with Bonferroni correction for multiple comparisons.

Compound	effect of calcium electroporation on cell viability, calcium chloride versus calcium glubionate (DC-3F cells)	concentration giving a decrease in viability similar to calcium electroporation [1] [µM]
O.O=C([O-])[C@H](O)[C@@H](O)[C@H](O)[C@H](O)CO.O=C([O-])[C@H](O)[C@@H](O)[C@H](O[C@@H]1O[C@H](CO)[C@H](O)[C@H](O)[C@H]1O)[C@H](O)CO.[Ca+2] [calcium glubionate]	no difference	–
bleomycin	–	≥ 0.1
